Assay results taken from ChEMBL document CHEMBL5465560, “Selectivity Literature for EUbOPEN Chemogenomic Library” (2024).

Experiments:
[1] = molecular target: Interferon-induced, double-stranded RNA-activated protein kinase (Homo sapiens) (UniProt P19525); assay: Selectivity interaction (KinomeScan (DiscoverX)) EUB0000699a EIF2AK2; details: at 10 µM
[2] = molecular target: T1, Histone-lysine N-methyltransferase SETD7 (Homo sapiens) (UniProt Q8WTS6); assay: Selectivity interaction (Methyltransferase screen (Scintillation proximity assays)) EUB0000255b SETD7
T1 sequence (whole entry): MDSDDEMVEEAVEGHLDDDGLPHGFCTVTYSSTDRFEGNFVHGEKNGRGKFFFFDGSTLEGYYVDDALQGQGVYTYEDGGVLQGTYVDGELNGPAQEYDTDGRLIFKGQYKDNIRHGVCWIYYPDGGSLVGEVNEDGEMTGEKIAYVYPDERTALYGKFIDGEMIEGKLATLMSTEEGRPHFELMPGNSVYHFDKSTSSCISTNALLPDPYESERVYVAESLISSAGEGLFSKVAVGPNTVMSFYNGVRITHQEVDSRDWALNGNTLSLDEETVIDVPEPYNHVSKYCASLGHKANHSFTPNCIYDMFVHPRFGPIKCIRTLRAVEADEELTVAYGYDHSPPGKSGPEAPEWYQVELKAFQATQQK

[3] = molecular target: T2, Dual specificity mitogen-activated protein kinase kinase 7 (Homo sapiens) (UniProt O14733); assay: Selectivity interaction (KinomeScan (DiscoverX)) EUB0001079a MAP2K7; details: at 1 µM
T2 sequence (whole entry): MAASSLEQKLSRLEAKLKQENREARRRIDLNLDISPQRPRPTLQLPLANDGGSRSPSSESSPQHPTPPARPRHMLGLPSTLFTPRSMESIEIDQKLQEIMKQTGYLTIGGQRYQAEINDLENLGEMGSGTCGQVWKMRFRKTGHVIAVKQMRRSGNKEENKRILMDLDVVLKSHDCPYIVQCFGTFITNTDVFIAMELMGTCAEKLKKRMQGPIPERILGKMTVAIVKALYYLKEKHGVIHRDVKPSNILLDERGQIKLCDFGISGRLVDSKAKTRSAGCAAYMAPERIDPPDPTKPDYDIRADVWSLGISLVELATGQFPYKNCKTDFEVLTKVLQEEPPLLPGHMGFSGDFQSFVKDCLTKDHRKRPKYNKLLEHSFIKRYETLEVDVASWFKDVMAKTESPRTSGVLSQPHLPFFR

[4] = molecular target: Serine/threonine-protein kinase WNK1 (Homo sapiens) (UniProt Q9H4A3); assay: Selectivity interaction (KinomeScan (DiscoverX)) EUB0001079a WNK1; details: at 1 µM
[5] = molecular target: Glycogen synthase kinase-3 beta (Homo sapiens, UniProt P49841); assay: Selectivity interaction (Rxn Biology Kinase assay) EUB0001632a GSK3B; details: at 10 µM
[6] = molecular target: Tyrosine-protein kinase BTK (Homo sapiens, UniProt Q06187); assay: Selectivity interaction (KinomeScan (DiscoverX)) EUB0000607a BTK; details: at 10 µM
[7] = molecular target: T3, cGMP-dependent protein kinase 1 (Homo sapiens) (UniProt Q13976); assay: Selectivity interaction (KinomeScan (DiscoverX)) EUB0001049a PRKG1; details: at 1 µM
T3 sequence (whole entry): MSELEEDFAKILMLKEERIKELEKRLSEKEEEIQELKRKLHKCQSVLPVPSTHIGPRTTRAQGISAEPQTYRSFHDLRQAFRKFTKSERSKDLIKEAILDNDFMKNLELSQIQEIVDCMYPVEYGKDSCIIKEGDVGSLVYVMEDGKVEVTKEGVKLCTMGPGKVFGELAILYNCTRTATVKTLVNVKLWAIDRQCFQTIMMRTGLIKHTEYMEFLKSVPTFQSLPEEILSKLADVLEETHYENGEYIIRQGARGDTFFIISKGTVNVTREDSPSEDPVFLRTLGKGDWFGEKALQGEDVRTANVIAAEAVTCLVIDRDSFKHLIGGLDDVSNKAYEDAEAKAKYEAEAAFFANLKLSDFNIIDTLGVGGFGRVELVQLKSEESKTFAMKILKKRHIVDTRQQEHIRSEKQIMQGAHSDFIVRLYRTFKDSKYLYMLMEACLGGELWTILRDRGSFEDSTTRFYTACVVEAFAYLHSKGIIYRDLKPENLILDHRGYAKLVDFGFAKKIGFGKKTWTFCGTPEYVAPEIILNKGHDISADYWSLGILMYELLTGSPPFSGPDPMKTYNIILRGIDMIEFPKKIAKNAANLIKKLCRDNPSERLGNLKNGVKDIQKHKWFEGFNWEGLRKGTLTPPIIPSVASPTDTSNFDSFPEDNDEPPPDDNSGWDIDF

[8] = molecular target: Serine/threonine-protein kinase NIM1 (Homo sapiens, UniProt Q8IY84); assay: Selectivity interaction (KinomeScan (DiscoverX)) EUB0000695a NIM1K; details: at 100 nM
[9] = molecular target: Protein-tyrosine kinase 6 (Homo sapiens, UniProt Q13882); assay: Selectivity interaction (KinomeScan (DiscoverX)) EUB0000595a PTK6; details: at 10 µM
[10] = molecular target: Serine/threonine-protein kinase PAK 6 (Homo sapiens) (UniProt Q9NQU5); assay: Selectivity interaction (KinomeScan (DiscoverX)) EUB0000045b PAK6; details: at 1 µM
[11] = molecular target: Mast/stem cell growth factor receptor Kit (Homo sapiens, UniProt P10721); assay: Selectivity interaction (Kinase panel (Eurofins)) EUB0001564a KIT; details: at 1 µM
[12] = molecular target: T4, Mitogen-activated protein kinase kinase kinase 2 (Homo sapiens) (UniProt Q9Y2U5); assay: Selectivity interaction (ActivX KiNativ screen (ex vivo kinase selectivity in human PBMCs)) EUB0001619a MAP3K2; format: cell-based; details: PBMC, at 1 µM
T4 sequence (whole entry): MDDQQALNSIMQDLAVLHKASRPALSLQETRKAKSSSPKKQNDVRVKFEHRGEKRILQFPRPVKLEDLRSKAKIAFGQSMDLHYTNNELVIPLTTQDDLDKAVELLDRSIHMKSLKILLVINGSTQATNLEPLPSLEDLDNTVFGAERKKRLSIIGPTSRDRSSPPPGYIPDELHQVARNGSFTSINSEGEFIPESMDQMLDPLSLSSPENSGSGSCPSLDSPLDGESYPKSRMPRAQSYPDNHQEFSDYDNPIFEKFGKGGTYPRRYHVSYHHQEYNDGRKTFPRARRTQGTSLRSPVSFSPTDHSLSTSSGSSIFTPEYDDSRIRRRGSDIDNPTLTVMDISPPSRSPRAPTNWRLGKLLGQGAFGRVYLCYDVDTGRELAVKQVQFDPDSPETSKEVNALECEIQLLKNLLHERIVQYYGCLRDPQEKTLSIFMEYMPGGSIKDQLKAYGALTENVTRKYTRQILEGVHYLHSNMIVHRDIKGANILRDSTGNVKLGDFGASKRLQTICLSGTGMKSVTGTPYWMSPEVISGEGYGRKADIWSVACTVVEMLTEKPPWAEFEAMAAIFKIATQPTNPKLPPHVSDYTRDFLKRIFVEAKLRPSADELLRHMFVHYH

Protein-tyrosine kinase 6, sequence (Q13882 whole entry, looked up): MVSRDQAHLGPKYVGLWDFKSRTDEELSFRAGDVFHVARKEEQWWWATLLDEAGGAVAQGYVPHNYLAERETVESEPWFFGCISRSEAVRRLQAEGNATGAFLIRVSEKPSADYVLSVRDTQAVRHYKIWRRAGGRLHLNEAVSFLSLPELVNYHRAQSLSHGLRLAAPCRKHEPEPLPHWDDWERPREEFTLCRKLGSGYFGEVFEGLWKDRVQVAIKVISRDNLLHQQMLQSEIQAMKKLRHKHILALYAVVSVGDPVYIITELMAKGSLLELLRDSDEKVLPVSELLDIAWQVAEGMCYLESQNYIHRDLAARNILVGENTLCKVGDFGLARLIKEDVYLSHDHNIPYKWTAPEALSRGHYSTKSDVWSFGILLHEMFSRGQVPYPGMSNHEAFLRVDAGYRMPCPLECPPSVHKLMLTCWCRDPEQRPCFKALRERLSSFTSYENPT
Serine/threonine-protein kinase NIM1, sequence (Q8IY84 whole entry): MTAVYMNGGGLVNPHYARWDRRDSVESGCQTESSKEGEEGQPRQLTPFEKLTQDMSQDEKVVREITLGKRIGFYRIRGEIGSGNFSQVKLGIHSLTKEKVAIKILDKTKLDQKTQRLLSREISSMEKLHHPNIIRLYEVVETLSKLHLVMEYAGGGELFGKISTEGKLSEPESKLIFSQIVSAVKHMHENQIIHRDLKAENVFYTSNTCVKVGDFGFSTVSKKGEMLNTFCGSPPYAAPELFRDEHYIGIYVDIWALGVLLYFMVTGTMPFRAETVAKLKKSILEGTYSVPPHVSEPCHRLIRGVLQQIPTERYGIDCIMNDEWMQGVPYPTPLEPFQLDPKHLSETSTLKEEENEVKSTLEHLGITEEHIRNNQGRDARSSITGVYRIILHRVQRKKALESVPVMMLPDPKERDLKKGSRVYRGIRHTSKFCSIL
Serine/threonine-protein kinase PAK 6 (Homo sapiens), sequence (Q9NQU5 whole entry, looked up): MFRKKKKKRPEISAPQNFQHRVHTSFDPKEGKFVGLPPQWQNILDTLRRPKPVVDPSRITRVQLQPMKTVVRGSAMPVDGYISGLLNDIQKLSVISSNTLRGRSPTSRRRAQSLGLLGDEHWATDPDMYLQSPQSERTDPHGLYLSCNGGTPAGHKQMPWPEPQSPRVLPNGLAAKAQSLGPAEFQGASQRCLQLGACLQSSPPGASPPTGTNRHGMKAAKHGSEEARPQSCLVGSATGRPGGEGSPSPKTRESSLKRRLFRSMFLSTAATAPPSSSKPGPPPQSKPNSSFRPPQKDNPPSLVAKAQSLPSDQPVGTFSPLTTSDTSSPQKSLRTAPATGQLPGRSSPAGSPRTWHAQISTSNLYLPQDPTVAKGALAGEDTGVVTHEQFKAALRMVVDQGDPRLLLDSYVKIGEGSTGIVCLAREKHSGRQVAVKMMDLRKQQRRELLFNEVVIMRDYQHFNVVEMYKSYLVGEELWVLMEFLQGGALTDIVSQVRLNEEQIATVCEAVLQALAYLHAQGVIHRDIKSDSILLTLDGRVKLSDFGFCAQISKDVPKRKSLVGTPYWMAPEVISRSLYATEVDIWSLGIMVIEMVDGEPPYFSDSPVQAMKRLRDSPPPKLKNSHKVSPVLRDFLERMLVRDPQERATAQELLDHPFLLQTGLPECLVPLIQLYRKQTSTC
Serine/threonine-protein kinase WNK1 (Homo sapiens), sequence (Q9H4A3 whole entry, looked up): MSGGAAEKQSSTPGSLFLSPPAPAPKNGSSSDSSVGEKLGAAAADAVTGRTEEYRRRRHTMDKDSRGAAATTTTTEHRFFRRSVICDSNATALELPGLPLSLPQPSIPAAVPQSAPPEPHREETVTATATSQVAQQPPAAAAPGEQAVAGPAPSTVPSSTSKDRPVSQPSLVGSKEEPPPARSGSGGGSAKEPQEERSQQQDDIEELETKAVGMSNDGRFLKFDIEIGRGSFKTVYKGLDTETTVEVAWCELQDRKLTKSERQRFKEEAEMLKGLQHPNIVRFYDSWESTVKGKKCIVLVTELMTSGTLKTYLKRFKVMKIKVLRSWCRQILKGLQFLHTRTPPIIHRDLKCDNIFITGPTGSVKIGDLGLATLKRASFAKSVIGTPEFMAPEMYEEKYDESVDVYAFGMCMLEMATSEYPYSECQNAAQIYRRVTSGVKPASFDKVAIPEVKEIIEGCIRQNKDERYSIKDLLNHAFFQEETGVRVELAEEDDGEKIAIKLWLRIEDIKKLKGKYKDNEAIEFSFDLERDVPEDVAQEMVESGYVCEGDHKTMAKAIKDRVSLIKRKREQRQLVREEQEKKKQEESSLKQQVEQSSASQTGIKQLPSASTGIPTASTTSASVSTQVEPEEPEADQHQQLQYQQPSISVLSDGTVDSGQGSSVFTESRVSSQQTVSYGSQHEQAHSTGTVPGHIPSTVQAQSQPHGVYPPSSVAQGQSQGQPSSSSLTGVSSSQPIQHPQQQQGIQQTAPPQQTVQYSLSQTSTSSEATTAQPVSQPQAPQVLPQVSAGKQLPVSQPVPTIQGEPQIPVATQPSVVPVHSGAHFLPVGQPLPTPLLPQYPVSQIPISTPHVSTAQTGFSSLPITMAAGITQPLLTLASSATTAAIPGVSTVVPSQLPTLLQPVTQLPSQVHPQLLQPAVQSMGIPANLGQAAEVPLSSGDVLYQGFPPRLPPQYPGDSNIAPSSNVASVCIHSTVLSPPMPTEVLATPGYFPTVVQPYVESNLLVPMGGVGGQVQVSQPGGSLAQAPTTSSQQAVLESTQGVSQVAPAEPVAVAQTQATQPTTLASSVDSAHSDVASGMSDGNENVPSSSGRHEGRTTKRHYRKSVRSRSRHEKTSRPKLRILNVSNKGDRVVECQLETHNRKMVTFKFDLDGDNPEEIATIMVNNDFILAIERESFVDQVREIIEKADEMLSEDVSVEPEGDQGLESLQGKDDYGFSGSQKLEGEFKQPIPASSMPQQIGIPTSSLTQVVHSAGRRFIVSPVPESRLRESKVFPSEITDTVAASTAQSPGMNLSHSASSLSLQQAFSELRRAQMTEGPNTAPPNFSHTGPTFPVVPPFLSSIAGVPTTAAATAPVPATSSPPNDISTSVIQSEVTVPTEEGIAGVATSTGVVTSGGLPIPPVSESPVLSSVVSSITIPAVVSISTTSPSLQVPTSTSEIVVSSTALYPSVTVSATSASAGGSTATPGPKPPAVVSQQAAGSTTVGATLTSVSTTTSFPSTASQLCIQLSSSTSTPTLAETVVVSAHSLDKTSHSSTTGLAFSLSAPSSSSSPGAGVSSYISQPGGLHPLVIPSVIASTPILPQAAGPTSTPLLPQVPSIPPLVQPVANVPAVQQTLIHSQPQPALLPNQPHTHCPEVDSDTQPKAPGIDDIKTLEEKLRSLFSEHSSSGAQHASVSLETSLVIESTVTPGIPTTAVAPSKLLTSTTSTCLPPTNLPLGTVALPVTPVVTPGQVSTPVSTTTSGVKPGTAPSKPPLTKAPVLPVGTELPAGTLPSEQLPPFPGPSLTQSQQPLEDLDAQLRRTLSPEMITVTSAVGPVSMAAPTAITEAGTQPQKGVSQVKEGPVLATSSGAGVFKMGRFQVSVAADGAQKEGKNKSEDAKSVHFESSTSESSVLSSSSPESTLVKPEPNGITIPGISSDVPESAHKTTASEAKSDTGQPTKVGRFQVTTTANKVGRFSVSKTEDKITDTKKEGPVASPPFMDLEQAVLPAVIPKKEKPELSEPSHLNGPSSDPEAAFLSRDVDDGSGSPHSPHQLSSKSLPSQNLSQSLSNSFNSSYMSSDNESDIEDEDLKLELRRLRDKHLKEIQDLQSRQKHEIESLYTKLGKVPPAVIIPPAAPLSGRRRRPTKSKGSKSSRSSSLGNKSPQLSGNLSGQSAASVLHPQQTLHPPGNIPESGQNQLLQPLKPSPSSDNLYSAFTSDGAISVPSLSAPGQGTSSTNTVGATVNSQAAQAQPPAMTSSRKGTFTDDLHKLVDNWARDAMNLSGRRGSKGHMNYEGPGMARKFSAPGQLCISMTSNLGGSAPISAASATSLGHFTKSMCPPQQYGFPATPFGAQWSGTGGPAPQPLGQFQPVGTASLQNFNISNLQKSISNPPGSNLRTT
Mast/stem cell growth factor receptor Kit, sequence (P10721 whole entry): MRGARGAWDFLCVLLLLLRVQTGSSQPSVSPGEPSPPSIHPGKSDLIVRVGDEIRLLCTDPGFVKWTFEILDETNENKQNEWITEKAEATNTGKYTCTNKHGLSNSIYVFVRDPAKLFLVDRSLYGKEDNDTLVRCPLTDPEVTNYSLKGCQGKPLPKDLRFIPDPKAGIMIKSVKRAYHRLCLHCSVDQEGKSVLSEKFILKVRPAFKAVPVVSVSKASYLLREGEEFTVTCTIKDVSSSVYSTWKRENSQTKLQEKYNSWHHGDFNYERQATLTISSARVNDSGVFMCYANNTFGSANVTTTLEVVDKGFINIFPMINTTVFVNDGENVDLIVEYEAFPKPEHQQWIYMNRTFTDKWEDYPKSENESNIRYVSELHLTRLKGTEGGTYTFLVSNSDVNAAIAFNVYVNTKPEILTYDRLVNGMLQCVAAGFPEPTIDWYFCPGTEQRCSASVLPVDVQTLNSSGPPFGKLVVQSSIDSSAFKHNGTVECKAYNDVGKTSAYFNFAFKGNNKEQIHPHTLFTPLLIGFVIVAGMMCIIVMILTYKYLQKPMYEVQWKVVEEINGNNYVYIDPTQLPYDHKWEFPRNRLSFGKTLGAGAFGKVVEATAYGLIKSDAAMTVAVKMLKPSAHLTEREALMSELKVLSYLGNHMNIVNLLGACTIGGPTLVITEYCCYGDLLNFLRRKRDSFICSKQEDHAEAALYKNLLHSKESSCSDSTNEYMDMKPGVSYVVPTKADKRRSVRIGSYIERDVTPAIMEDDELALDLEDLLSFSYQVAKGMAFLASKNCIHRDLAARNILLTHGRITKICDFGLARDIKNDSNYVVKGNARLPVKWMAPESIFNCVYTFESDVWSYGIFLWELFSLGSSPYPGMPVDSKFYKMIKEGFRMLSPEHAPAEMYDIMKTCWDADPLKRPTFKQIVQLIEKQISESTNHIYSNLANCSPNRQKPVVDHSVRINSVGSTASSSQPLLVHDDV

Q: CCN(CC)CCCCNc1ncc2cc(-c3cc(OC)cc(OC)c3)c(NC(=O)NC(C)(C)C)nc2n1 was tested. Which % of control [1] did it give?
A: 24%

Q: What does the source list for COCCN1CCC(c2cc(CN(C)C(=O)c3cccc(Oc4ccccc4)c3)ccn2)CC1?
A: % activity ([2]; at 1 µM): > 95%; % activity ([2]; at 10 µM): > 90%

Q: Nc1cnc(N2CCc3cc(S(=O)(=O)Nc4c(F)cc(Cl)cc4F)cc(N4CCCC4=O)c32)nc1 [TP-020n] was tested. Which % of control [3] did it give?
A: 100%

Q: What about the % of control [4] of the same molecule?
A: 100%

Q: Which % of inhibition [5] does the source give for Cn1cc(-n2cnc3c(NCc4nc5cc(Cl)c(Cl)cc5[nH]4)nc(N4CCOCC4)nc32)cn1 here?
A: 96.5%

Q: CNC(=O)Nc1ccc(-c2nc(N3CC4CCC(C3)O4)c3cnn(C4CCC5(CC4)OCCO5)c3n2)cc1 was tested. Which % of control [6] did it give?
A: 90%

Q: With COc1cc(Nc2nc(C)cc(-c3cnn4nc(OC)ccc34)n2)cc(C(F)(F)F)c1 as the molecule, how does the % of control [7] read?
A: 92%

Q: How did the % of control [8] turn out when Cc1cc(F)c(C(=O)Nc2cccc(-c3nncn3C(C)C)n2)cc1-n1cnc(C2CC2)c1 was run?
A: 84%

Q: With COCC(=O)NC/C=C/c1ccc2ncnc(Nc3ccc(Oc4ccc(C)nc4)c(C)c3)c2c1 [CP-724714] as the molecule, how does the % of control [9] read?
A: 100%

Q: With C=CC(=O)Nc1cc(-n2c(=O)ccc3cnc4ccc(-c5ccc(NS(C)(=O)=O)cc5)cc4c32)ccc1C as the molecule, how does the % of control [10] read?
A: 98%

Q: How did the % of inhibition [11] turn out when CC[C@@H](Nc1c(C#N)c(-c2ccc(-c3cccc(C)c3F)cc2)nc2cnccc12)C(=O)O [BAY-091] was run?
A: 22.3%

Q: N#Cc1cccc(-c2c[nH]c3ncnc(N4CCOCC4)c23)c1 was tested. Which % of inhibition [12] did it give?
A: 13%
